Data: PubChem BioAssay AID1963846 (Molecular Pharmacology Branch, DTP, NCI, 2024)

System: 454973-116-R2-J3-PDC complex spheroid viability
Test: Anticancer human tumor 454973-116-R2-J3-PDC patient-derived pancreatic carcinoma cell line growth inhibition [POLQ]
Conditions: for IC50: curve of first compound; for viability, T/C: stronger effect = lower value; active = viability on the fitted dose curve at most 10% of control; inactive = the rest
How it was run: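 Three-cell-type spheroids modelling solid tumor plus stroma served as the readout system; POL inhibitors were tested individually and in combination, concentration ranges set by clinical Cmax where known.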

[1] = second compound 0.0316 µM, first compound 0.0316 µM
[2] = second compound 0.0316 µM, first compound 0.1 µM
[3] = second compound 0.0316 µM, first compound 0.316 µM
[4] = second compound 0.0316 µM, first compound 1 µM
[5] = second compound 0.1 µM, first compound 0.0316 µM
[6] = second compound 0.1 µM, first compound 0.1 µM
[7] = second compound 0.1 µM, first compound 0.316 µM
[8] = second compound 0.1 µM, first compound 1 µM
[9] = second compound 0.316 µM, first compound 0.0316 µM
[10] = second compound 0.316 µM, first compound 0.1 µM
[11] = second compound 0.316 µM, first compound 0.316 µM
[12] = second compound 0.316 µM, first compound 1 µM
[13] = second compound 1 µM, first compound 0.0316 µM
[14] = second compound 1 µM, first compound 0.1 µM
[15] = second compound 1 µM, first compound 0.316 µM
[16] = second compound 1 µM, first compound 1 µM
[17] = second compound 3.16 µM, first compound 0.0316 µM
[18] = second compound 3.16 µM, first compound 0.1 µM
[19] = second compound 3.16 µM, first compound 0.316 µM
[20] = second compound 3.16 µM, first compound 1 µM
[21] = second compound 10 µM, first compound 0.0316 µM
[22] = second compound 10 µM, first compound 0.1 µM
[23] = second compound 10 µM, first compound 0.316 µM
[24] = second compound 10 µM, first compound 1 µM
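Note: spheroids exposed to drugs for seven days before measurement.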
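Throughout, for viability, T/C: percent viability relative to DMSO vehicle control wells taken as 100%.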

CC(=O)O[C@H]1C(=O)[C@@]2(C)[C@H]([C@H](OC(=O)c3ccccc3)[C@]3(O)C[C@H](OC(=O)[C@H](O)[C@@H](NC(=O)c4ccccc4)c4ccccc4)C(C)=C1C3(C)C)[C@]1(OC(C)=O)CO[C@@H]1C[C@@H]2O + Cc1cccc(N(C)C(=O)C2C(O)CCN2c2nc(C)cc(C(F)(F)F)c2C#N)c1
active: viability, T/C (second compound 0.0316 µM, first compound 0.00949 µM) 5.9% | viability, T/C (second compound 0.0316 µM, first compound 0.03 µM) 5.78% | viability, T/C (second compound 0.0316 µM, first compound 0.0949 µM) 4.79% | viability, T/C (second compound 0.0316 µM, first compound 0.3 µM) 5.44% | viability, T/C (second compound 0.0316 µM, first compound 0.949 µM) 6.64% | viability, T/C (second compound 0.0316 µM, first compound 3 µM) 4.88% | viability, T/C (second compound 0.1 µM, first compound 0.00949 µM) 7.63% | viability, T/C (second compound 0.1 µM, first compound 0.03 µM) 5.67% | viability, T/C (second compound 0.1 µM, first compound 0.0949 µM) 4.39% | viability, T/C (second compound 0.1 µM, first compound 0.3 µM) 5.55% | viability, T/C (second compound 0.1 µM, first compound 0.949 µM) 5.21% | viability, T/C (second compound 0.1 µM, first compound 3 µM) 5.24% | viability, T/C (second compound 0.316 µM, first compound 0.00949 µM) 7.72% | viability, T/C (second compound 0.316 µM, first compound 0.03 µM) 6.78% | viability, T/C (second compound 0.316 µM, first compound 0.0949 µM) 5.34% | viability, T/C (second compound 0.316 µM, first compound 0.3 µM) 4.54% | viability, T/C (second compound 0.316 µM, first compound 0.949 µM) 4.69% | viability, T/C (second compound 0.316 µM, first compound 3 µM) 5.5% | viability, T/C (second compound 1 µM, first compound 0.00949 µM) 7.85% | viability, T/C (second compound 1 µM, first compound 0.03 µM) 5.01% | viability, T/C (second compound 1 µM, first compound 0.0949 µM) 5.19% | viability, T/C (second compound 1 µM, first compound 0.3 µM) 5.01% | viability, T/C (second compound 1 µM, first compound 0.949 µM) 5.7% | viability, T/C (second compound 1 µM, first compound 3 µM) 4.36% | viability, T/C (second compound 3.16 µM, first compound 0.00949 µM) 6.74% | viability, T/C (second compound 3.16 µM, first compound 0.03 µM) 5.6% | viability, T/C (second compound 3.16 µM, first compound 0.0949 µM) 5.28% | viability, T/C (second compound 3.16 µM, first compound 0.3 µM) 4.99% | viability, T/C (second compound 3.16 µM, first compound 0.949 µM) 5.45% | viability, T/C (second compound 3.16 µM, first compound 3 µM) 4.91% | viability, T/C (second compound 10 µM, first compound 0.00949 µM) 6.83% | viability, T/C (second compound 10 µM, first compound 0.03 µM) 5.22% | viability, T/C (second compound 10 µM, first compound 0.0949 µM) 5.42% | viability, T/C (second compound 10 µM, first compound 0.3 µM) 5.06% | viability, T/C (second compound 10 µM, first compound 0.949 µM) 4.84% | viability, T/C (second compound 10 µM, first compound 3 µM) 5.41%
< 9.49 nM: IC50 (second compound 0.0316 µM) | IC50 (second compound 0.1 µM) | IC50 (second compound 0.316 µM) | IC50 (second compound 1 µM) | IC50 (second compound 3.16 µM) | IC50 (second compound 10 µM)

COc1cccc(OCCCN)c1-c1cc(Nc2cnc(C#N)cn2)n[nH]1 + Nc1ccc(C#CCN(C(=O)Cc2ncc(C(F)(F)F)cc2C(F)(F)F)c2ccc(F)cc2)nn1
13.6 nM: IC50 (second compound 0.1 µM)
13.7 nM: IC50 (second compound 3.16 µM)
13.9 nM: IC50 (second compound 1 µM)
active: viability, T/C [1] 7.44% | viability, T/C [2] 5.67% | viability, T/C [3] 5.56% | viability, T/C [4] 4.28% | viability, T/C [6] 6.65% | viability, T/C [7] 5.32% | viability, T/C [8] 4.22% | viability, T/C [10] 7.21% | viability, T/C [11] 5.08% | viability, T/C [12] 4.5% | viability, T/C [13] 6.4% | viability, T/C [14] 5.68% | viability, T/C [15] 5.11% | viability, T/C [16] 3.75% | viability, T/C [17] 5.97% | viability, T/C [18] 5.07% | viability, T/C [19] 5.91% | viability, T/C [20] 4.97% | viability, T/C [21] 5.54% | viability, T/C [22] 5.59% | viability, T/C [23] 5.26% | viability, T/C [24] 4.7%
inactive: viability, T/C (second compound 0.0316 µM, first compound 0.00316 µM) 100% | viability, T/C (second compound 0.0316 µM, first compound 0.01 µM) 76.6% | viability, T/C (second compound 0.1 µM, first compound 0.00316 µM) 101% | viability, T/C (second compound 0.1 µM, first compound 0.01 µM) 63.5% | viability, T/C [5] 12.7% | viability, T/C (second compound 0.316 µM, first compound 0.00316 µM) 110% | viability, T/C (second compound 0.316 µM, first compound 0.01 µM) 67.2% | viability, T/C [9] 11.2% | viability, T/C (second compound 1 µM, first compound 0.00316 µM) 99.7% | viability, T/C (second compound 1 µM, first compound 0.01 µM) 67.3% | viability, T/C (second compound 3.16 µM, first compound 0.00316 µM) 101% | viability, T/C (second compound 3.16 µM, first compound 0.01 µM) 66.7% | viability, T/C (second compound 10 µM, first compound 0.00316 µM) 113% | viability, T/C (second compound 10 µM, first compound 0.01 µM) 56.4%
14.3 nM: IC50 (second compound 0.316 µM)
15.6 nM: IC50 (second compound 0.0316 µM)
11.6 nM: IC50 (second compound 10 µM)

CNCc1ccc(-c2[nH]c3cc(F)cc4c3c2CCNC4=O)cc1 + Cc1cccc(N(C)C(=O)C2C(O)CCN2c2nc(C)cc(C(F)(F)F)c2C#N)c1
> 10000 nM: IC50 (second compound 0.0316 µM) | IC50 (second compound 0.1 µM) | IC50 (second compound 0.316 µM) | IC50 (second compound 1 µM) | IC50 (second compound 3.16 µM) | IC50 (second compound 10 µM)
inactive: viability, T/C [1] 110% | viability, T/C [2] 96.1% | viability, T/C [3] 101% | viability, T/C [4] 103% | viability, T/C (second compound 0.0316 µM, first compound 3.16 µM) 101% | viability, T/C (second compound 0.0316 µM, first compound 10 µM) 79.1% | viability, T/C [5] 94% | viability, T/C [6] 108% | viability, T/C [7] 97.8% | viability, T/C [8] 102% | viability, T/C (second compound 0.1 µM, first compound 3.16 µM) 99.4% | viability, T/C (second compound 0.1 µM, first compound 10 µM) 83% | viability, T/C [9] 106% | viability, T/C [10] 102% | viability, T/C [11] 107% | viability, T/C [12] 98.9% | viability, T/C (second compound 0.316 µM, first compound 3.16 µM) 104% | viability, T/C (second compound 0.316 µM, first compound 10 µM) 85.8% | viability, T/C [13] 108% | viability, T/C [14] 111% | viability, T/C [15] 103% | viability, T/C [16] 97.2% | viability, T/C (second compound 1 µM, first compound 3.16 µM) 100% | viability, T/C (second compound 1 µM, first compound 10 µM) 86.6% | viability, T/C [17] 109% | viability, T/C [18] 105% | viability, T/C [19] 105% | viability, T/C [20] 106% | viability, T/C (second compound 3.16 µM, first compound 3.16 µM) 106% | viability, T/C (second compound 3.16 µM, first compound 10 µM) 82.9% | viability, T/C [21] 118% | viability, T/C [22] 105% | viability, T/C [23] 101% | viability, T/C [24] 95.6% | viability, T/C (second compound 10 µM, first compound 3.16 µM) 106% | viability, T/C (second compound 10 µM, first compound 10 µM) 74.9%
